Source: patent US20210395210A1, “INHIBITION OF BACTERIAL CHAPERONIN SYSTEMS” (THE TRUSTEES OF INDIANA UNIVERSITY, priority 2018, published 2021)
Like-named read-outs stand apart in the source and are kept apart here.

Assays:
native MDH = target: T1, native MDH (Sus scrofa, UniProt P00346); assay: Counter-screen for inhibition of native MDH enzymatic activity; assay type: biochemical, pig
T1 construct: soluble pig heart MDH from Roche, product #10127248001; purchased Roche 10127248001; host or cells: pig heart
T1 sequence (P00346 25-338): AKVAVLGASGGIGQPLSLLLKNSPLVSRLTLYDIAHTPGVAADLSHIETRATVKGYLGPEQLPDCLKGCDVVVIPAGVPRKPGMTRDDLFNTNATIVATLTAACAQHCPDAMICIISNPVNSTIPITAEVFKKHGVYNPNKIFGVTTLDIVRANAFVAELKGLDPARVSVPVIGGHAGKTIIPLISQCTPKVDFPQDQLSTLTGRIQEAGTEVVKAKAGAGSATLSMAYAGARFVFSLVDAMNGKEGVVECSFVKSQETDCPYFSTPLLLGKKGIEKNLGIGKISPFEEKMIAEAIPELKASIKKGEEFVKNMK
Outline: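 Compounds were added only after GroEL/ES-mediated MDH refolding (45 min, 37 °C) had been EDTA-quenched, so only refolded MDH activity is probed.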

[1] = system: Drug sensitive Staphylococcus aureus (ATCC 25923); assay: Bacterial proliferation assay, drug sensitive S. aureus; assay type: cell-based
Outline: (§1)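 Cultures in BHI broth with 25 mg/L Ca2+ and 12.5 mg/L Mg2+ were diluted to OD600 0.017 and exposed to compounds in 384-well plates at 37 °C without shaking. OD600 was read at 6-8 h (S. aureus, E. cloacae, P. aeruginosa) or 24 h (A. baumannii). EC50 values were averaged over quadruplicates.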

[2] = system: Methicillin resistant S. aureus (MRSA) (ATCC BAA-44); assay: Bacterial proliferation assay, MRSA; assay type: cell-based, Staphylococcus aureus; conditions: Staphylococcus aureus; MRSA; log of EC50 (μM scale), with standard deviation; read-out: log(EC50) Bacterial Proliferation Assay S. aureus Resistant (converted)
Outline: as §1

[3] = system: Enterobacter cloacae (ATCC 13047); assay: Bacterial proliferation assay, E. cloacae; assay type: cell-based
Outline: as §1

SMILES: COc1ccc(Br)cc1C(=O)Nc1ccccc1 [Compound 43, 5-Bromo-2-methoxy-N-phenylbenzamide]
- IC50 (native MDH; log of IC50 (μM scale), with standard deviation, read-out: log(IC50) Native MDH Reporter (converted)): > 63.1 µM
- IC50 (native MDH; read-out: Biochemical Assay IC50 Native MDH Reporter): > 63 µM
- EC50 ([1]; ATCC25923, OD600 at 6-8 h, read-out: Bacterial Proliferation EC50 S. aureus Sensitive): > 100 µM
- EC50 ([1]; ATCC25923, log of EC50 (μM scale), with standard deviation, read-out: log(EC50) Bacterial Proliferation Assay S. aureus Sensitive (converted)): > 100 µM
- EC50 [2]: > 100 µM
- EC50 ([3]; ATCC13047, OD600 at 6-8 h, read-out: Bacterial Proliferation EC50 E. cloacae): > 100 µM
- EC50 ([3]; ATCC13047, log of EC50 (μM scale), with standard deviation, read-out: log(EC50) Bacterial Proliferation Assay E. cloacae (converted)): > 100 µM
